Experiments:
[1] = tested on: RSV respiratory tract virus (A long strain); experiment: RSV long CPE assay (cytopathic effect assay), EC50; format: cell-based; conditions: human respiratory syncytial virus, HEp-2, 120 h; Hep2 cells infected with RSV A long strain, 5 days, CCK-8 readout
Method: (§1) Detect EC50 and CC50 values of anti RSV respiratory tract virus compounds through the cytopathic effect assay.
Virus strain: RSV respiratory tract virus (A long strain)
(§2) The cell plate was centrifugated (300 rpm) to make the cells adherent to the wall, placed into a 37° C., 5% CO2 incubator overnight.
(§3) 1) the compound in 100% DMSO underwent a semi logarithmic dilution, then was added to the cell plate with a Echo liquid handler. Ensure that the final concentration of DMSO was 1%;
(§4) 2) Cell-control hole: no compound and viruse were added; virus-control hole: no compound was added.
dilute RSV viruses to 100 TCID50/30 μL with medium cultured with 4° C. cells, and then add the diluted viruses to a cell plate (30 μL/hole) with Multidrop® automatic liquid distributor, and then placed into a 37° C., 5% CO2 culture incubator for 5 days.
1) after 5 days, observe the pathological change in each hole.
(§5) 2) add CCK-8 (Dojindo-CK04-20, 6 μL/hole) to 384 well plate with Multidrop® automatic liquid distributor;
(§6) 3) place the plate at a 37° C., 5% CO2 culture incubator for 3˜4 h, read the absorbance value with SPECTRA max 340PC_Molecular device at 450 nm and 630 nm;

[2] = RSV long CPE assay (cytopathic effect assay), CC50 toxicity in vitro; format: cell-based; conditions: human, Hep2 cells, CCK-8 readout, top concentration 100 μM
Method: as §1, §2, §3, §4, §5, §6

SMILES	EC50 [1] [µM]	CC50 ([2]; 5 days) [µM]	CC50 at 5 days [2] [µM]
CC(C)OC(=O)N1CC2(C1)C(=O)N(Cc1nc3c(n1CCCCO)CCCC3)c1cccc(Cl)c12 [Embodiment 85, Isopropyl 4′-chloro-1′-((1-(4-hydroxybutyl)-4,5,6,7-tetrahydro-1H-benzo[d]imidazol-2-yl)methyl)-2′-oxospiro[azetidine-3,3′-indoline]-1-carboxylate]	< 0.1	> 100	–
CCC(=O)N1CC2(C1)C(=O)N(Cc1nc3c(n1CCCC(F)(F)F)CCCC3)c1ccccc12 [Embodiment 94, 1-Propionyl-1′-((1-(4,4,4-trifluorobutyl)-4,5,6,7-tetrahydro-1H-benzo[d]imidazol-2-yl)methyl)spiro[azetidine-3,3′-indoline]-2′-one]	< 0.1	–	> 100
CC(C)OC(=O)N1CC2(C1)C(=O)N(Cc1nc3c(n1CCCCO)CCCC3)c1ccccc12 [Embodiment 62, Isopropyl 1′-((1-(4-hydroxybutyl)-4,5,6,7-tetrahydro-1H-benzo[d]imidazol-2-yl)methyl)-2′-oxospiro[azetidine-3,3′-indoline]-1-carboxylate]	< 0.1	–	> 100
O=C(C(F)F)N1CC2(C1)C(=O)N(Cc1nc3c(n1CCCC(F)(F)F)CCCC3)c1ccccc12 [Embodiment 96, 1-(2,2-Difluoroacetyl)-1′-((1-(4,4,4-trifluorobutyl)-4,5,6,7-tetrahydro-1H-benzo[d]imidazol-2-yl)methyl)spiro[azetidine-3,3′-indoline]-2′-one]	< 0.1	–	> 100
CS(=O)(=O)N1CC2(C1)C(=O)N(Cc1nc3c(n1CCCC(F)(F)F)CCC3)c1ccccc12 [Embodiment 106, 1-(Methylsulfonyl)-1′-((1-(4,4,4-trifluorobutyl)-1,4,5,6-tetrahydrocyclopenta[d]imidazol-2-yl)methyl)spiro[azetidine-3,3′-indoline]-2′-one]	< 0.1	–	> 100
